# Test: Maximum solubility of ivermectin in solvents
# Format: physicochemical
# Description: By way of example of a solvent and/or a propenetrating agent for the ivermectin active agent, representative are propylene glycol, alcohols such as ethanol, isopropanol, butanol, benzyl alcohol, N-methyl-2-pyrrolidone or DMSO, polysorbate 80; phenoxyethanol, and mixtures thereof.
substance,measurement,setting,value
Ivermectin,Maximum % solubility of ivermectin in the solvent under consideration (weight/weight),solvent N-methyl-2-pyrrolidone,58.13 % (weight/weight)
same,Maximum % solubility of ivermectin in the solvent under consideration (weight/weight),solvent propylene glycol/oleic acid (4 parts/2 parts),27.31 % (weight/weight)
same,Maximum % solubility of ivermectin in the solvent under consideration (weight/weight),solvent propylene glycol/polysorbate 80/phenoxyethanol (4 parts/1 part/1 part),28.63 % (weight/weight)

# Reference: US8858967B2, “Dermatological cream-gels containing avermectin compounds” (Galderma S.A., priority 2004, dated 2014)
